Consider two compounds from patent publication US11179663B1, “Polyurethane-based materials” (Aviro LLC, priority 2021, dated 2021).

Test [1] has as its system COVID-19. The test is described as follows: coronavirus capture (attachment) test on coated surfaces, crystal violet stain read by spectrophotometer. To be noted: FIG. 1; virus capture by coated surfaces.
For test [2], the system named is COVID-19. The test is described as follows: coronavirus deactivation test after attachment to the surfaces, qPCR for genes indicative of COVID-19 activity. To be noted: FIG. 2; compared among the antiviral coatings.

As for `CCCCCCCCCCCCCCCC[n+]1ccccc1` [CPC, Cetyl pyridinium chloride], in test [1], the SARS-Cov2 capture result is “roughly 95%”.
Consider `CCCCCCCCCCCCCCCCCC[N+](C)(C)CCC[Si](OC)(OC)OC.[Cl-]` [DMS, Dimethyloctadecyl[3-(trimethoxysilyl)propyl]ammonium chloride], for which the “potential to deactivate captured virus” value in test [2] is recorded as “highest potential to deactivate”.
